# Entries after “also recorded” stand apart in the source; their conditions may differ. Read-outs that look alike come from different tables or passages of the source.
# What was measured:
# [1] = tested on: U373MG cells; assay: MTT survival of U373MG cells; assay type: cell-based, human; conditions: U373; 6 days; H-1PV 5 pfU/cell, 25 μM TMZ
# Procedure: The percentage of surviving U373MG cells [%] 3 days (A) and 6 days (B) after treatment with H-1PV (Virus), combined treatment with H-1PV and TMZ (V+TMZ), and treatment with TMZ only (TMZ) is shown.
# (§1) Initially, the rates of survival of the cell lines used in the study were determined using MTT assays in order to check whether these cell lines are sensitive for H-1PV infection and Temozolomide (TMZ) treatment. In addition, the rates of survival after combined treatment with H-1PV and TMZ were determined. […] The graphs of FIGS. 7-11 depict the results after 3 and 6 days, respectively. After 3 days of treatment distinct effects can already be observed. After 6 days the experiments were terminated since control cells were already confluent. In addition, after 6 days further analyses could not be carried out due to the very low rate of survival (depending on the particular cell line).
# [2] = tested on: U343MG cells; assay: MTT survival of U343MG cells; assay type: cell-based, human; conditions: U343; 6 days; H-1PV 5 pfU/cell, 25 μM TMZ
# Procedure: The percentage of surviving U343MG cells [%] 3 days (A) and 6 days (B) after treatment with H-1PV (Virus), combined treatment with H-1PV and TMZ (V+TMZ), and treatment with TMZ only (TMZ) is shown.
# as §1
# [3] = tested on: U87MG cells; assay: MTT survival of U87MG cells; assay type: cell-based, human; conditions: 3 days, H-1PV 5 pfU/cell, 25 μM TMZ
# Procedure: The percentage of surviving U87MG cells [%] 3 days (A) and 6 days (B) after treatment with H-1PV (Virus), combined treatment with H-1PV and TMZ (V+TMZ), and treatment with TMZ only (TMZ) is shown.
# as §1
# [4] = tested on: MiaPaCa-2 cells; assay: MTT cytotoxicity of H-1PV, gemcitabine and their combination, MiaPaCa-2; assay type: cell-based, human
# Procedure: (§2) Survival was measured using MTT assays performed 72 h after infection, in comparison with mock-treated cultures (100%), and is inversely expressed as cell death rate. The data presented are means from 3 independent experiments carried out in quadruplicates.
# (§3) For cytotoxicity assessment, cells were seeded in 96-well plates at a density of 2×10^3 cells per well and treated as indicated in the Figure Legends. Cell viability was determined by the colorimetric MTT (3-(4,5-dimethylthiazolyl-2)-2,5-diphenyltetrazolium bromide) assay, as recommended by the manufacturer (Sigma, Deisenhofen, Germany).
# (§4) Means and standard deviations (SD) were calculated from triplicate in vitro experiments. […] The isobologram was created from the data obtained for the combination of the two agents. […] CI=1 represents the conservation isobologram and indicates additive effects. CI values below 1 indicate higher than the expected additive effect (synergy).
# [5] = tested on: Panc-1 cells; assay: MTT cytotoxicity of H-1PV, gemcitabine and their combination, Panc-1; assay type: cell-based; conditions: Homo sapiens
# Procedure: as §2, §3, §4
# [6] = tested on: HA-RPC cells; assay: MTT cytotoxicity on rat PDAC cells; assay type: cell-based; conditions: compared with the human PDAC cells
# Procedure: as §3
# [7] = tested on: Colo357 cells; assay: MTT cytotoxicity of H-1PV, gemcitabine and their combination, Colo357; assay type: cell-based; conditions: Homo sapiens
# Procedure: as §2, §3, §4
# [8] = tested on: SU86.86 cells; assay: MTT cytotoxicity of H-1PV, gemcitabine and their combination, SU86.86; assay type: cell-based, human
# Procedure: as §2, §3, §4
# [9] = Toxicological assessment of blood markers in PDAC-bearing rats; assay type: in vivo, Lewis rats; conditions: rat model
# Procedure: Blood samples were analyzed for: (A) red blood cell (RBC), platelet, and white blood cell (WBC) counts and related parameters; (B) liver (aspartate amino transferase [ASAT], alanine amino transferase [ALAT]) and kidney (Creatinine) markers. The data shown are means with SD bars.
# H-1PV was inoculated intratumorally (i.t.). Blood samples were taken from animal tail vein 2 weeks after the last therapeutic treatment. Toxicological markers were assayed in Strasbourg University Hospital using automated clinical laboratory analysis (Biochemical multiparametric device Biochime ADVIA 160, Siemens, Cergy Pontoise, France).
# [10] = tested on: BxPC3 cells; assay: MTT cytotoxicity of H-1PV, gemcitabine and their combination, BxPC3; assay type: cell-based; conditions: Homo sapiens
# Procedure: as §2, §3, §4
# [11] = tested on: intrapancreatic HA-RPC tumors; assay: Survival of PDAC-bearing rats after combined gemcitabine and H-1PV; assay type: in vivo, Lewis rats; conditions: vs. mock treatment or gemcitabine monotherapy
# Procedure: Animal survival was monitored over a period of 100 days and is presented as Kaplan-Meyer curves, with the median survival and P values indicated below.
# Male Lewis rats (Janvier, Le Genest Saint Isle, France) weighing 180-200 g were used for pancreatic carcinoma implantation. 5.10^6 HA-RPC cells were injected in the pancreatic parenchyma. Tumor progression is confined to the pancreatic tail for the first 3 weeks after implantation, leading to lymph node invasion during the 4th week. Liver metastases appear at weeks 5-6 and death with lung metastasis occurs within weeks 6-9.[17] Animals were kept under conventional conditions (temperature 22±2° C., relative humidity 55±10%, dark-light rhythm of 12 hr) with unrestricted access to a balanced pellet diet and water. Animal experiments were performed according to the French and European Community directives for animal care (number 86/609/EEC of Nov. 24, 1986). […]
# Mean and standard deviations from triplicate in vitro experiments were calculated. Difference in tumour volume, determined in vivo through mCT-scan size measurements, was tested using a one-way analysis of variance followed by a parametric Student's unpaired t test as Bartlett's test indicated homogeneity of variance. […] The survival curves were generated using the Kaplan-Meier method, and the differences between the curves were assessed by the log-rank test. […]
# [12] = tested on: T3M-4 cells; assay: MTT cytotoxicity of H-1PV, gemcitabine and their combination, T3M-4; assay type: cell-based, human
# Procedure: as §2, §3, §4
# Drug sensitivity of parental and resistant cells was assessed in both MTT and clonogenic survival assays.
smiles,measurement,setting,value
"Cn1nnc2c(C(N)=O)ncn2c1=O [TMZ, Temozolomide]",cells lysed / cytotoxic effect,[1],no cytotoxic effect; also recorded: did not result in cell death
same,cells killed,[2],more than 80%
same,cells lysed / killed,[3],about 20%
Nc1ccn([C@@H]2O[C@H](CO)[C@@H](O)C2(F)F)c(=O)n1 [gemcitabine],EC50,"[4]; Homo sapiens, MIA PaCa-2, read-out: EC50 gemcitabine monotherapy (in brackets)",9 ng/mL
same,EC75 comb. 1 gemcitabine,"[4]; MiaPaCa-2, combined with H-1PV MOI 1",18 ng/mL
same,EC75 comb. 2 gemcitabine,"[4]; MiaPaCa-2, combined with H-1PV MOI 10",2.0 ng/mL
same,EC75 mono. gemcitabine,"[4]; MiaPaCa-2, gemcitabine alone, MTT",30 ng/mL
same,EC50,"[5]; PANC-1, read-out: EC50 mono. gemcitabine",400 ng/mL
same,EC50,"[5]; read-out: EC50 comb. 1 gemcitabine, Panc-1, combined with H-1PV MOI 1",200 ng/mL
same,EC50,"[5]; read-out: EC50 comb. 2 gemcitabine, Panc-1, combined with H-1PV MOI 10",60 ng/mL
same,sensitivity to virus and gemcitabine toxicity,[6],same range of sensitivity
same,EC50,"[7]; COLO357, read-out: EC50 mono. gemcitabine",1.5 ng/mL
same,EC50,"[7]; read-out: EC50 comb. 1 gemcitabine, Colo357, combined with H-1PV MOI 1",1.3 ng/mL
same,EC50,"[7]; read-out: EC50 comb. 2 gemcitabine, Colo357, combined with H-1PV MOI 10",0.6 ng/mL
same,EC50,"[8]; Homo sapiens, SU.86.86, read-out: EC50 gemcitabine monotherapy (in brackets)",2.5 ng/mL
same,EC75 comb. 1 gemcitabine,"[8]; SU86.86, combined with H-1PV MOI 1",8.0 ng/mL
same,EC75 comb. 2 gemcitabine,"[8]; SU86.86, combined with H-1PV MOI 10",1.3 ng/mL
same,EC75 mono. gemcitabine,"[8]; SU86.86, gemcitabine alone, MTT",17 ng/mL
same,"bilirubin, ASAT, and ALAT levels",[9]; 2 weeks after last treatment,elevated
same,reticulocyte and monocyte levels,[9]; 2 weeks after last treatment,drop
same,Creatinine levels,[9]; kidney clearance,remained stable
same,EC50,"[10]; BXPC-3, read-out: EC50 comb. 1 gemcitabine, BxPC3, combined with H-1PV MOI 1",20 ng/mL
same,EC50,"[10]; BXPC-3, read-out: EC50 comb. 2 gemcitabine, BxPC3, combined with H-1PV MOI 10",7 ng/mL
same,EC50,"[10]; BXPC-3, read-out: EC50 mono. gemcitabine",25 ng/mL
same,survival of PDAC-bearing rats,[11],transient protection
same,EC50,"[12]; Homo sapiens, T3M4, read-out: EC50 gemcitabine monotherapy (in brackets)",1.2 ng/mL
same,EC75 comb. 1 gemcitabine,"[12]; T3M-4, combined with H-1PV MOI 1",2.4 ng/mL
same,EC75 comb. 2 gemcitabine,"[12]; T3M-4, combined with H-1PV MOI 10",1.5 ng/mL
same,EC75 mono. gemcitabine,"[12]; T3M-4, gemcitabine alone, MTT",2.5 ng/mL

# From US8414883B2, “Parvovirus cancer therapy and combination with chemotherapy” (priority 2007, dated 2013)
